According to patent US11723908B2, “Quinazoline derivatives as antitumor agents” (SUZHOU ZANRONG PHARMA LIMITED, priority 2018, dated 2023):

biological target: HER2 (Homo sapiens (Human), UniProt P04626); test: BT474 cellular assay (HER2 inhibition), phospho-HER2 ELISA; format: cell-based; details: inhibition of phosphor HER2, BT474 cells, 2 hours compound incubation
Protocol: Assay a) BT474 Cellular Assay (HER2 Inhibition) Inhibition of phosphor HER2 was determined by enzyme-linked immunosorbent assay (ELISA) in BT474 cells. BT474 cell line was purchased from [NT] number HTB-20). Human Phospho-ErbB2 ELISA kit was purchased from R&D systems (catalog number DYC1768). Day 1: When the cells reach 70-90% confluence, cells were trypsinized and re-suspended. 5000 cells per well were seeded to a 384-well plate. The plate was incubated at 37° C. with 5% CO2 for 24 hours. ELISA plate was coated with 2 μg/ml capture antibody, which was incubated at 4° C. overnight. Day 2: 25 nl compounds was dosed by Echo from source plate and the 384-well plate was incubated at 37° C. for 2 hours. 30 μl lysis buffer was added to each well and the 384-well plate was shaken softly at 4° C. for 30 minutes. The ELISA plate was washed, blocked and incubated at room temperature for 1-2 hours. The blocked ELISA plate was washed and 20 μl cell lysate was transferred from the 384-well plate to the ELISA plate, which was incubated overnight at 4° C. Day 3: The ELISA plate was washed 3 times. 25 μl/well detection antibody was added (diluted 1 by 2000 in 1% BSA in PBS). After 2 hours of incubation with detection antibody, the ELISA plate was washed 3 times, 25 μl/well TMB substrate was added and incubated for 10-15 minutes before stop solution was added. Absorbance at 450 nm and 570 nm was read within 30 minutes after adding the stop solution. […] The IC50 results are provided in Table 1 for some exemplary compounds.

Chain of HER2 (P04626 23-1255): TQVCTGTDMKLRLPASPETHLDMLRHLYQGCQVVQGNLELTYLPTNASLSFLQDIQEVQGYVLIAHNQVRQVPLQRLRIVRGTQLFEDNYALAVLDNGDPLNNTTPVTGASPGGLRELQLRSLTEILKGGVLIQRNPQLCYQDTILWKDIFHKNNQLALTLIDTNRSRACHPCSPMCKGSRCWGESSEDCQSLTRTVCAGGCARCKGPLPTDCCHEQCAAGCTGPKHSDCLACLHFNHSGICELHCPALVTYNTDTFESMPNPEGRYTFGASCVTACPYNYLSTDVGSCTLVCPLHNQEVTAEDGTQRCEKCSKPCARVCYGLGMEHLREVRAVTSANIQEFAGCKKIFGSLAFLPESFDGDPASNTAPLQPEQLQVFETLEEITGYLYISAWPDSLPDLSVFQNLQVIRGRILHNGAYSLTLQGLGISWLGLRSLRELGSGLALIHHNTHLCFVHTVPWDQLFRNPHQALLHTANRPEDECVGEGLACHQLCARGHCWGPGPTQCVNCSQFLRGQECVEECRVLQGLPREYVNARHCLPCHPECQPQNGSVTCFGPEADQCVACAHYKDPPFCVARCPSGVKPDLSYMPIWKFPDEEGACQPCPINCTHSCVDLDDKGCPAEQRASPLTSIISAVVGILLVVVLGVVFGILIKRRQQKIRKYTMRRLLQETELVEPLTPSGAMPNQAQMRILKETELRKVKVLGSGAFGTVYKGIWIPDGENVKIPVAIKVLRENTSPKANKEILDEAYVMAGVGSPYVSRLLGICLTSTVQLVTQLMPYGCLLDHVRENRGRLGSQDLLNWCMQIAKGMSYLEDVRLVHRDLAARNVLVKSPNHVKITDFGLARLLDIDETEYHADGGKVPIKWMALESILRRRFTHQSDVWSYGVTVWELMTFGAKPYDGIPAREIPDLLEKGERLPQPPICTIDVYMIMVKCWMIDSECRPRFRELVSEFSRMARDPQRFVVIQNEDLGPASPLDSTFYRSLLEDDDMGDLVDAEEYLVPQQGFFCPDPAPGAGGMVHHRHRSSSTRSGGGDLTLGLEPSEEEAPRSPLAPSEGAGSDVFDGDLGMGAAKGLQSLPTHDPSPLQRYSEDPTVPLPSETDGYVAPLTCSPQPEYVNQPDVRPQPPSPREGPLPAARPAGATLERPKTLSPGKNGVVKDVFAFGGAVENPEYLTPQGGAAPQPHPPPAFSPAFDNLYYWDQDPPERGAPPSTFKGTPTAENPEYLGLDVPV

Row | Compound | IC50 [nM]
1 | Cc1cc(Nc2ncnc3ccc(NC(=O)/C=C/[C@H]4CCCN4C)c(O[C@@H]4CCN(C)CC4(F)F)c23)ccc1Oc1cc2ncnn2cn1 [Example 95, (E)-N-(4-((4-([1,2,4]triazolo[1,5-c]pyrimidin-7-yloxy)-3-methylphenyl)amino)-5-(((R)-3,3-difluoro-1-methylpiperidin-4-yl)oxy)quinazolin-6-yl)-3-((R)-1-methylpyrrolidin-2-yl)acrylamide] | 48
2 | Cc1cc(Nc2ncnc3ccc(OC(C)C)c(O[C@H]4CCN(C)CC4(F)F)c23)ccc1Oc1cc2ncnn2cn1 [Example 30, (S)—N-(4-([1,2,4]triazolo[1,5-c]pyrimidin-7-yloxy)-3-methylphenyl)-5-((3,3-difluoro-1-methylpiperidin-4-yl)oxy)-6-isopropoxyquinazolin-4-amine] | 20
3 | C=CC(=O)N1CCC=C(c2cc(N3CC(N(C)C)C3)c3c(Nc4ccc(Oc5cc6ncnn6cn5)c(C)c4)ncnc3c2)C1 [Example 84, 1-(5-(4-((4-([1,2,4]triazolo[1,5-c]pyrimidin-7-yloxy)-3-methylphenyl)amino)-5-(3-(dimethylamino)azetidin-1-yl)quinazolin-7-yl)-3,6-dihydropyridin-1(2H)-yl)prop-2-en-1-one] | 207
4 | Cc1cc(Nc2ncnc3ccc(OC(F)F)c(O[C@H]4CCN(C)CC4(F)F)c23)ccc1Oc1cc2ncnn2cn1 [Example 18, (S)—N-(4-([1,2,4]triazolo[1,5-c]pyrimidin-7-yloxy)-3-methylphenyl)-5-((3,3-difluoro-1-methylpiperidin-4-yl)oxy)-6-(difluoromethoxy)quinazolin-4-amine] | 48
5 | COc1ccc2ncnc(Nc3ccc(Oc4cc5ncnn5cn4)c(C)c3)c2c1N1CC2C1CCN2C1CC1 (centres unmarked) [Example 67, N-(4-([1,2,4]triazolo[1,5-c]pyrimidin-7-yloxy)-3-methylphenyl)-5-(2-cyclopropyl-2,6-diazabicyclo[3.2.0]heptan-6-yl)-6-methoxyquinazolin-4-amine] | 17
6 | C=CC(=O)N1CC=C(c2ccc3ncnc(Nc4ccc(Oc5cc6ncnn6cn5)c(C)c4)c3c2N2CC(N(C)C)C2)CC1 [Example 80, 1-(4-(4-((4-([1,2,4]triazolo[1,5-c]pyrimidin-7-yloxy)-3-methylphenyl)amino)-5-(3-(dimethylamino)azetidin-1-yl)quinazolin-6-yl)-3,6-dihydropyridin-1(2H)-yl)prop-2-en-1-one] | 390
7 | COc1ccc2ncnc(Nc3ccc(Oc4cc5ncnn5cn4)c(C)c3)c2c1O[C@@H]1CN(C)CC1(F)F [Example 74, (R)—N-(4-([1,2,4]triazolo[1,5-c]pyrimidin-7-yloxy)-3-methylphenyl)-5-((4,4-difluoro-1-methylpyrrolidin-3-yl)oxy)-6-methoxyquinazolin-4-amine] | 9.9
8 | COc1ccc2ncnc(Nc3ccc(Oc4cc5ncnn5cn4)c(C)c3)c2c1N1CC2C1CCN2CC(F)F (centres unmarked) [Example 68, N-(4-([1,2,4]triazolo[1,5-c]pyrimidin-7-yloxy)-3-methylphenyl)-5-(2-(2,2-difluoroethyl)-2,6-diazabicyclo[3.2.0]heptan-6-yl)-6-methoxyquinazolin-4-amine] | 6.4
9 | COc1ccc2ncnc(Nc3ccc(Oc4cc5ncnn5cn4)c(C)c3)c2c1O[C@H]1CN(C)CC1(F)F [Example 75, (S)—N-(4-([1,2,4]triazolo[1,5-c]pyrimidin-7-yloxy)-3-methylphenyl)-5-((4,4-difluoro-1-methylpyrrolidin-3-yl)oxy)-6-methoxyquinazolin-4-amine] | 13
10 | COc1ccc2ncnc(Nc3ccc(Oc4cc5ncnn5cn4)c(C)c3)c2c1OC1CCN(C)CC1 [Example 5, N-(4-([1,2,4]triazolo[1,5-c]pyrimidin-7-yloxy)-3-methylphenyl)-6-methoxy-5-((1-methylpiperidin-4-yl)oxy)quinazolin-4-amine] | 82
11 | COc1ccc2ncnc(Nc3ccc(Oc4cc5ncnn5cn4)c(C)c3)c2c1O[C@@H]1CCN(C(C)C)CC1(F)F [Example 78, (R)-N-(4-([1,2,4]triazolo[1,5-c]pyrimidin-7-yloxy)-3-methylphenyl)-5-((3,3-difluoro-1-isopropylpiperidin-4-yl)oxy)-6-methoxyquinazolin-4-amine] | 11
12 | Cc1cc(Nc2ncnc3ccc(OC(F)(F)F)c(O[C@@H]4CCN(C)CC4(F)F)c23)ccc1Oc1cc2ncnn2cn1 [Example 72, (R)—N-(4-([1,2,4]-triazolo[1,5-c]pyrimidin-7-yloxy)-3-methylphenyl)-5-((3,3-difluoro-1-methylpiperidin-4-yl)oxy)-6-(trifluoromethoxy)quinazolin-4-amine] | 51
13 | Cc1cc(Nc2ncnc3ccc(NC(=O)/C=C/CN(C)C)c(O[C@@H]4CCN(C)CC4(F)F)c23)ccc1Oc1cc2ncnn2cn1 [Example 92, (R,E)-N-(4-((4-([1,2,4]triazolo[1,5-c]pyrimidin-7-yloxy)-3-methylphenyl)amino)-5-((3,3-difluoro-1-methylpiperidin-4-yl)oxy)quinazolin-6-yl)-4-(dimethylamino)but-2-enamide] | 267
14 | C=CC(=O)N1CC=C(c2ccc3ncnc(Nc4ccc(Oc5cc6ncnn6cn5)c(C)c4)c3c2O[C@@H]2CCN(C)CC2(F)F)CC1 [Example 81, (R)-1-(4-(4-((4-([1,2,4]triazolo[1,5-c]pyrimidin-7-yloxy)-3-methylphenyl)amino)-5-((3,3-difluoro-1-methylpiperidin-4-yl)oxy)quinazolin-6-yl)-3,6-dihydropyridin-1(2H)-yl)prop-2-en-1-one] | 225
15 | COc1ccc2ncnc(Nc3ccc(Oc4cc5ncnn5cn4)c(C)c3)c2c1N1CC[C@@H](N(C)C)C1 [Example 2, (R)—N-(4-([1,2,4]-triazolo[1,5-c]pyrimidin-7-yloxy)-3-methylphenyl)-5-(3-(dimethylamino)pyrrolidin-1-yl)-6-methoxyquinazolin-4-amine] | 27
16 | [2H]C([2H])([2H])Oc1ccc2ncnc(Nc3ccc(Oc4cc5ncnn5cn4)c(C)c3)c2c1O[C@@H]1CCN(C([2H])([2H])[2H])CC1(F)F [Example 77, (R)—N-(4-([1,2,4]triazolo[1,5-c]pyrimidin-7-yloxy)-3-methylphenyl)-5-((3,3-difluoro-1-(methyl-d3)piperidin-4-yl)oxy)-6-(methoxy-d3)quinazolin-4-amine] | 14
17 | Cc1cc(Nc2ncnc3ccc(OC(C)C)c(O[C@@H]4CCN(C)CC4(F)F)c23)ccc1Oc1cc2ncnn2cn1 [Example 29, (R)—N-(4-([1,2,4]triazolo[1,5-c]pyrimidin-7-yloxy)-3-methylphenyl)-5-((3,3-difluoro-1-methylpiperidin-4-yl)oxy)-6-isopropoxyquinazolin-4-amine] | 9.3
18 | Cc1cc(Nc2ncnc3ccc(O[C@H]4CCOC4)c(O[C@H]4CCN(C)CC4(F)F)c23)ccc1Oc1cc2ncnn2cn1 [Example 22, N-(4-([1,2,4]triazolo[1,5-c]pyrimidin-7-yloxy)-3-methylphenyl)-5-(((S)-3,3-difluoro-1-methylpiperidin-4-yl)oxy)-6-(((S)-tetrahydrofuran-3-yl)oxy)quinazolin-4-amine] | 21
19 | C=CC(=O)N1CCC=C(c2ccc3ncnc(Nc4ccc(Oc5cc6ncnn6cn5)c(C)c4)c3c2N2CC(N(C)C)C2)C1 [Example 82, 1-(5-(4-((4-([1,2,4]triazolo[1,5-c]pyrimidin-7-yloxy)-3-methylphenyl)amino)-5-(3-(dimethylamino)azetidin-1-yl)quinazolin-6-yl)-3,6-dihydropyridin-1(2H)-yl)prop-2-en-1-one] | 179
20 | COc1cc2ncnc(Nc3ccc(Oc4cc5ncnn5cn4)c(C)c3)c2c(O[C@@H]2CCN(C)CC2(F)F)c1OC [Example 99, (R)—N-(4-([1,2,4]triazolo[1,5-c]pyrimidin-7-yloxy)-3-methylphenyl)-5-((3,3-difluoro-1-methylpiperidin-4-yl)oxy)-6,7-dimethoxyquinazolin-4-amine] | 170
21 | Cc1cc(Nc2ncnc3ccc(OC(F)F)c(O[C@@H]4CCN(C)CC4(F)F)c23)ccc1Oc1cc2ncnn2cn1 [Example 17, (R)—N-(4-([1,2,4]triazolo[1,5-c]pyrimidin-7-yloxy)-3-methylphenyl)-5-((3,3-difluoro-1-methylpiperidin-4-yl)oxy)-6-(difluoromethoxy)quinazolin-4-amine] | 35
22 | COc1ccc2ncnc(Nc3ccc(Oc4cc5ncnn5cn4)c(C)c3)c2c1O[C@@H]1CCN(C2CC2)CC1(F)F [Example 79, (R)-N-(4-([1,2,4]triazolo[1,5-c]pyrimidin-7-yloxy)-3-methylphenyl)-5-((1-cyclopropyl-3,3-difluoropiperidin-4-yl)oxy)-6-methoxyquinazolin-4-amine] | 9.8
23 | COc1ccc2ncnc(Nc3ccc(Oc4cc5ncnn5cn4)c(C)c3)c2c1OC1CCNCC1(F)F (centres unmarked) [Example 76, N-(4-([1,2,4]triazolo[1,5-c]pyrimidin-7-yloxy)-3-methylphenyl)-5-((3,3-difluoropiperidin-4-yl)oxy)-6-methoxyquinazolin-4-amine] | 11
